Values of other authors as cited in patent US7922709B2, “Enhanced delivery of naked DNA to skin by non-invasive in vivo electroporation” (priority 1998, dated 2011).

## bleomycin
  log P (partition coefficient between octanol and water): very negative
